Assay results published in ChEMBL document CHEMBL1201862, “PubChem BioAssay data set” (2004).
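Values below derive from 48-hour exposures of cells grown in 96-well plates, with endpoints linearly interpolated between the two concentrations bracketing the appropriate inhibition level. Here, GI50 denotes the concentration required for 50% inhibition of growth.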 Activity calls are given as the source filed them. No stated cut-off is given here; in the data, active = GI50 up to about 1.1 µM and inactive = higher.

Key:
Assay in all cases: inhibition of tumour cell growth, NCI panel, 48 h
EKVX = tested on: EKVX
SK-MEL-28 = tested on: SK-MEL-28
KM12 = tested on: KM12
UACC-62 = tested on: UACC-62
SNB-75 = tested on: SNB-75
OVCAR-8 = tested on: OVCAR-8
HCT-15 = tested on: HCT-15
SK-OV-3 = tested on: SK-OV-3
SK-MEL-5 = tested on: SK-MEL-5
NCI-H522 = tested on: NCI-H522
SF-539 = tested on: SF-539
SF-295 = tested on: SF-295
OVCAR-3 = tested on: OVCAR-3
MCF7 = tested on: MCF7
PC-3 = tested on: PC-3
Hs-578T = tested on: Hs-578T
HOP-92 = tested on: HOP-92
OVCAR-4 = tested on: OVCAR-4
NCI-H23 = tested on: NCI-H23
CCRF-CEM = tested on: CCRF-CEM
UO-31 = tested on: UO-31
HOP-62 = tested on: HOP-62
MDA-MB-231 = tested on: MDA-MB-231
HCT-116 = tested on: HCT-116
OVCAR-5 = tested on: OVCAR-5
NCI/ADR-RES = tested on: NCI/ADR-RES
SK-MEL-2 = tested on: SK-MEL-2
LOX IMVI = tested on: LOX IMVI
NCI-H460 = tested on: NCI-H460
HL-60 = tested on: HL-60
SW-620 = tested on: SW-620
MOLT-4 = tested on: MOLT-4
HCC 2998 = tested on: HCC 2998
786-0 = tested on: 786-0
MDA-MB-435 = tested on: MDA-MB-435
U-251 = tested on: U-251
A549 = tested on: A549
RXF 393 = tested on: RXF 393
SF-268 = tested on: SF-268
M14 = tested on: M14
TK-10 = tested on: TK-10
COLO 205 = tested on: COLO 205
IGROV-1 = tested on: IGROV-1
HT-29 = tested on: HT-29
NCI-H226 = tested on: NCI-H226
SN12C = tested on: SN12C
SNB-19 = tested on: SNB-19
DU-145 = tested on: DU-145
UACC-257 = tested on: UACC-257
ACHN = tested on: ACHN
CAKI-1 = tested on: CAKI-1
BT-549 = tested on: BT-549
A498 = tested on: A498
MDA-N = tested on: MDA-N
RPMI-8226 = tested on: RPMI-8226
SR = tested on: SR
K562 = tested on: K562
T47D = tested on: T47D
Malme-3M = tested on: Malme-3M

Compound: COc1ccccc1/C=C1\NC(=S)N(/C=C2\C(=O)Oc3ccccc3C2=O)C1=O
- GI50 (EKVX): 16.9 µM (inactive)
- GI50 (SK-MEL-28): 51.5 µM (inactive)
- GI50 (KM12): 47 µM (inactive)
- GI50 (UACC-62): 23.3 µM (inactive)
- GI50 (SNB-75): 30.1 µM (inactive)
- GI50 (OVCAR-8): 36.6 µM (inactive)
- GI50 (HCT-15): 32.2 µM
- GI50 (SK-OV-3): 80.4 µM (inactive)
- GI50 (SK-MEL-5): 23.9 µM (inactive)
- GI50 (NCI-H522): 39.4 µM (inactive)
- GI50 (SF-539): 25.5 µM (inactive)
- GI50 (SF-295): 45.2 µM (inactive)
- GI50 (OVCAR-3): 32.1 µM (inactive)
- GI50 (MCF7): 71.4 µM (inactive)
- GI50 (PC-3): 44.2 µM (inactive)
- GI50 (Hs-578T): > 100 µM (inactive)
- GI50 (HOP-92): 7.76 µM (inactive)
- GI50 (OVCAR-4): 24.9 µM (inactive)
- GI50 (NCI-H23): 35.9 µM (inactive)
- GI50 (CCRF-CEM): 23.4 µM (inactive)
- GI50 (UO-31): 21.2 µM (inactive)
- GI50 (HOP-62): > 100 µM (inactive)
- GI50 (MDA-MB-231): 40.7 µM (inactive)
- GI50 (HCT-116): 14.2 µM (inactive)
- GI50 (OVCAR-5): > 100 µM (inactive)
- GI50 (NCI/ADR-RES): 24.6 µM (inactive)
- GI50 (SK-MEL-2): 62.1 µM (inactive)
- GI50 (LOX IMVI): 60.5 µM (inactive)
- GI50 (NCI-H460): 41.4 µM (inactive)
- GI50 (HL-60): 9.84 µM (inactive)
- GI50 (SW-620): 53.2 µM (inactive)
- GI50 (MOLT-4): 11 µM (inactive)
- GI50 (HCC 2998): 53.7 µM (inactive)
- GI50 (786-0): 52.5 µM (inactive)
- GI50 (MDA-MB-435): 35.2 µM (inactive)
- GI50 (U-251): 23.2 µM (inactive)
- GI50 (A549): 51.6 µM (inactive)
- GI50 (RXF 393): 38.5 µM (inactive)
- GI50 (SF-268): 98.6 µM (inactive)
- GI50 (M14): 64.1 µM (inactive)
- GI50 (TK-10): 33.5 µM (inactive)
- GI50 (COLO 205): 45.3 µM (inactive)
- GI50 (IGROV-1): 26.6 µM (inactive)
- GI50 (HT-29): 43.5 µM (inactive)
- GI50 (NCI-H226): 14.6 µM (inactive)
- GI50 (SN12C): > 100 µM (inactive)
- GI50 (SNB-19): 38.2 µM (inactive)
- GI50 (DU-145): 21.1 µM (inactive)
- GI50 (UACC-257): 42.4 µM (inactive)
- GI50 (ACHN): 55.6 µM (inactive)
- GI50 (CAKI-1): > 100 µM (inactive)
- GI50 (BT-549): 21.9 µM (inactive)

Compound: COC(=O)[C@@H]1OC(C)(c2ccccc2)O[C@H]1C(=O)OC
- GI50 (EKVX): > 100 µM (inactive)
- GI50 (SK-MEL-28): > 100 µM (inactive)
- GI50 (KM12): > 100 µM (inactive)
- GI50 (UACC-62): > 100 µM (inactive)
- GI50 (A498): > 100 µM (inactive)
- GI50 (SNB-75): > 100 µM (inactive)
- GI50 (OVCAR-8): > 100 µM (inactive)
- GI50 (HCT-15): > 100 µM
- GI50 (SK-OV-3): > 100 µM (inactive)
- GI50 (SK-MEL-5): > 100 µM (inactive)
- GI50 (NCI-H522): > 100 µM (inactive)
- GI50 (SF-539): > 100 µM (inactive)
- GI50 (SF-295): > 100 µM (inactive)
- GI50 (OVCAR-3): > 100 µM (inactive)
- GI50 (MCF7): > 100 µM (inactive)
- GI50 (PC-3): > 100 µM (inactive)
- GI50 (Hs-578T): > 100 µM (inactive)
- GI50 (HOP-92): > 100 µM (inactive)
- GI50 (OVCAR-4): > 100 µM (inactive)
- GI50 (NCI-H23): > 100 µM (inactive)
- GI50 (CCRF-CEM): 48.1 µM (inactive)
- GI50 (UO-31): > 100 µM (inactive)
- GI50 (HOP-62): > 100 µM (inactive)
- GI50 (MDA-MB-231): > 100 µM (inactive)
- GI50 (MDA-N): > 100 µM (inactive)
- GI50 (OVCAR-5): > 100 µM (inactive)
- GI50 (NCI/ADR-RES): > 100 µM (inactive)
- GI50 (SK-MEL-2): > 100 µM (inactive)
- GI50 (LOX IMVI): > 100 µM (inactive)
- GI50 (NCI-H460): > 100 µM (inactive)
- GI50 (RPMI-8226): > 100 µM (inactive)
- GI50 (SR): > 100 µM (inactive)
- GI50 (HL-60): 4.52 µM (inactive)
- GI50 (SW-620): > 100 µM (inactive)
- GI50 (MOLT-4): > 100 µM (inactive)
- GI50 (HCC 2998): 76.4 µM (inactive)
- GI50 (786-0): > 100 µM (inactive)
- GI50 (MDA-MB-435): > 100 µM (inactive)
- GI50 (U-251): > 100 µM (inactive)
- GI50 (A549): > 100 µM (inactive)
- GI50 (RXF 393): > 100 µM (inactive)
- GI50 (SF-268): > 100 µM (inactive)
- GI50 (M14): > 100 µM (inactive)
- GI50 (TK-10): > 100 µM (inactive)
- GI50 (COLO 205): > 100 µM (inactive)
- GI50 (K562): > 100 µM (inactive)
- GI50 (IGROV-1): > 100 µM (inactive)
- GI50 (HT-29): > 100 µM (inactive)
- GI50 (NCI-H226): > 100 µM (inactive)
- GI50 (T47D): > 100 µM (inactive)
- GI50 (SNB-19): > 100 µM (inactive)
- GI50 (DU-145): > 100 µM (inactive)
- GI50 (UACC-257): > 100 µM (inactive)
- GI50 (Malme-3M): > 100 µM (inactive)
- GI50 (ACHN): > 100 µM (inactive)
- GI50 (CAKI-1): > 100 µM (inactive)
